Reference: patent publication US10729671B2, “Zinc complexes of hydrazones and (thio)semicarbazones and their use for the treatment of cancer” (RUTGERS, THE STATE UNIVERSITY OF NEW JERSEY, priority 2015, dated 2020)

Key:
[1] = tested on: TOV112D; assay: Cell-based TOV112D activity (cell growth inhibition assay); set-up: species or system human
[2] = Liposome import assay (RZ-3 fluorescence); details: for Zn2+ transport into liposomes: external [Zn2+]free 10 μM
Experimental: DOPC-liposomes were prepared by film rehydration and extrusion followed by gel filtration and diluted to an OD600=0.06 in buffer. The size distribution of the liposomes was determined by dynamic light scattering (DLS) using a Malvern Zetasizer Nano ZS. Fluorescence measurements were taken on a Horiba Fluoromax-4 spectrofluorimeter in a 5×5 mm quartz cuvette with λex/λem=550/572 nm for RZ-3 and 490/515 nm for calcein. Initial Zn^2+ import/export was quantified by fitting the first 10-30 s of data after each treatment to a line and converted to units of flux using the following Eqn 1:
[formula] where Ji is the initial flux, ΔF/Δt is the slope of the fit line, Fmax is RZ-3 fluorescence in the presence of saturating Zn^2+ and 1% TritonX-100, Fmin is RZ-3 fluorescence in the presence of excess EDTA and 1% TritonX-100, [RZ3] is the concentration of encapsulated RZ-3, and SA/Vol is the surface area to volume ratio calculated assuming hollow spheres of the mean diameter determined by DLS. Intracellular [Zn^2+]free Imaging TOV112D or HEK293 cells (40,000 cells/well) were plated on either 8-well BD Falcon chambered culture slides (Corning Life Sciences) or 8-chambered #1.5 Nunc Lab-Tek II chambered coverglasses (Thermo Scientific) treated with poly-L-lysine. After 48 h, cells were washed 2×5 m in serum-free media and incubated with 1 μM FZ3-AM for 40 m at 37° C. Cells were then washed 2×5 m in either EBSS/H (−)Ca/Mg or phenol-red free DMEM+10% FBS containing the indicated treatments for 20 m before imaging. […] To determine the kinetics of fluorescence change, each background-subtracted image in the time-lapse series was integrated in ImageJ and normalized to the integrated fluorescence of the first frame after treatment. For quantification of intracellular [Zn^2+]free, each cell was analyzed in the treated, 50 μM PYR/ZnCl2 (1:1), and 100 μM TPEN images by taking the mean fluorescence of an ROI inside the cell subtracted by an ROI immediately outside the cell measured in ImageJ. The [Zn^2+]free for each cell was then calculated by Eqn 2: […]

[3] = tested on: HEK293 cells; assay: Intracellular [Zn2+]free imaging with FluoZin-3-AM in HEK293 cells; format: cell-based
Experimental: (§1) To minimize the potential for Zn^2+ contamination and contributions from poorly defined elements in complete media (e.g. FBS), cells were treated and imaged in Ca^2+ and Mg^2+-free Earle's Balanced Salt Solution supplemented with 10 mM HEPES pH 7.4 (EBSS/H (−)Ca/Mg). Excess ZnCl2 with the Zn^2+ ionophore pyrithione (PYR) was used as a positive control. Excess membrane-permeable Zn^2+ chelator N,N,N′,N′-tetrakis(2-pyridylmethyl)ethane-1,2-diamine (TPEN) was used as a negative control.
To normalize for differential dye loading, cells were then sequentially treated with excess PYR/ZnCl2, imaged, treated with TPEN, and imaged again. PYR/ZnCl2 and TPEN served to saturate and apoize the intracellular FZ3, respectively.
[formula] where Ji is the initial flux, ΔF/Δt is the slope of the fit line, Fmax is RZ-3 fluorescence in the presence of saturating Zn^2+ and 1% TritonX-100, Fmin is RZ-3 fluorescence in the presence of excess EDTA and 1% TritonX-100, [RZ3] is the concentration of encapsulated RZ-3, and SA/Vol is the surface area to volume ratio calculated assuming hollow spheres of the mean diameter determined by DLS. Intracellular [Zn^2+]free Imaging TOV112D or HEK293 cells (40,000 cells/well) were plated on either 8-well BD Falcon chambered culture slides (Corning Life Sciences) or 8-chambered #1.5 Nunc Lab-Tek II chambered coverglasses (Thermo Scientific) treated with poly-L-lysine. After 48 h, cells were washed 2×5 m in serum-free media and incubated with 1 μM FZ3-AM for 40 m at 37° C. Cells were then washed 2×5 m in either EBSS/H (−)Ca/Mg or phenol-red free DMEM+10% FBS containing the indicated treatments for 20 m before imaging. For nuclear colocalization, 1 μg/mL Hoechst 33342 was also included. Cells were imaged using a Zeiss LSM510 META NLO confocal microscope equipped with 37° C. environmental control chamber. FZ3 and Hoechst 33342 were excited at 488 nm (argon laser) and 790 nm (Chameleon Ti:sapphire laser), respectively. To determine the kinetics of fluorescence change, each background-subtracted image in the time-lapse series was integrated in ImageJ and normalized to the integrated fluorescence of the first frame after treatment. For quantification of intracellular [Zn^2+]free, each cell was analyzed in the treated, 50 μM PYR/ZnCl2 (1:1), and 100 μM TPEN images by taking the mean fluorescence of an ROI inside the cell subtracted by an ROI immediately outside the cell measured in ImageJ. The [Zn^2+]free for each cell was then calculated by Eqn 2:
[formula] […] To minimize the effects of outliers the lowest and highest 5% of cells in each series were rejected, and the remaining values averaged to give the value from that experiment. The number of cells analyzed in each trial ranged from 54-163. […]

[4] = Zn2+ binding affinity
Experimental: It can function as an ionophore in conditions of the liposome experiments where external [Zn^2+]free was 10 μM. However, in complete media containing 10% fetal bovine serum (FBS), Zn^2+-binding proteins from the serum (e.g. albumin) necessarily compete for Zn^2+ with any putative MC, making the effective [Zn^2+]free much lower than [Zn^2+]total.
FZ3-AM, RZ-3 (K^+ salt), and cell culture media were purchased from Life Technologies. DOPC was purchased from Avanti Polar Lipids. ZMC1 and A6 were similarly obtained. […] HEK293 and TOV112D cells were purchased from ATCC and maintained in DMEM+GlutaMAX with 10% FBS and 1 mg/mL penicillin-streptomycin under a 5% CO2 atmosphere at 37° C. All non-cell based experiments were conducted in 50 mM Tris pH 7.2, 0.1 M NaCl at 25° C.

[5] = tested on: TOV112D cells; assay: Intracellular [Zn2+]free imaging with FluoZin-3-AM in TOV112D cells; format: cell-based; details: ZMC1 alone (no ZnCl2), EBSS/H (−)Ca/Mg
Experimental: as §1
To normalize for differential dye loading, cells were then sequentially treated with excess PYR/ZnCl2, imaged, treated with TPEN, and imaged again. […]
[formula] where Ji is the initial flux, ΔF/Δt is the slope of the fit line, Fmax is RZ-3 fluorescence in the presence of saturating Zn^2+ and 1% TritonX-100, Fmin is RZ-3 fluorescence in the presence of excess EDTA and 1% TritonX-100, [RZ3] is the concentration of encapsulated RZ-3, and SA/Vol is the surface area to volume ratio calculated assuming hollow spheres of the mean diameter determined by DLS. […] To determine the kinetics of fluorescence change, each background-subtracted image in the time-lapse series was integrated in ImageJ and normalized to the integrated fluorescence of the first frame after treatment. […] The [Zn^2+]free for each cell was then calculated by Eqn 2:
[formula] […] The number of cells analyzed in each trial ranged from 54-163. […]

[6] = HEK293 (non-cancer, p53-WT), FZ3-AM, complete media, confocal microscopy

SMILES | Activity TOV112D [1] | also measured
C/C(=N\NC(=S)N1CCC1)c1cnccn1 [Compound 1, (E)-N′-(1-(Pyrazin-2-yl)ethylidene)azetidine-1-carbothiohydrazide] | ++ | –
C/C(=N\NC(=S)N1CCC1)c1cc(N(C)C)ccn1 [Compound 2, (E)-N′-(1-(4-(dimethylamino)pyridin-2-yl)ethylidene)azetidine-1-carbothiohydrazide] | +++ | –
C/C(=N\Nc1nc2ccccc2s1)c1ccccn1 [Compound 3, (E)-2-(2-(1-(pyridin-2-yl)ethylidene)hydrazinyl)benzo[d]thiazole] | +++ | –
C/C(=N\Nc1nc2ccccc2o1)c1ccccn1 [Compound 4, (E)-2-(2-(1-(pyridin-2-yl)ethylidene)hydrazinyl)benzo[d]oxazole] | +++ | –
C/C(=N\Nc1nc2ccccc2[nH]1)c1ccccn1 [Compound 9, (E)-2-(2-(1-(pyridin-2-yl)ethylidene)hydrazinyl)-1H-benzo[d]imidazole] | +++ | –
C/C(=N\Nc1nc2ccccc2n1C)c1ccccn1 [Compound 10, (E)-1-methyl-2-(2-(1-(pyridin-2-yl)ethylidene)hydrazinyl)-1H-benzo[d]imidazole] | +++ | –
CC/C(=N\Nc1nc2ccccc2s1)c1ccccn1 [Compound 11, (E)-2-(2-(1-(pyridin-2-yl)propylidene)hydrazinyl)benzo[d]thiazole] | +++ | –
CC(C)/C(=N\Nc1nc2ccccc2s1)c1ccccn1 [Compound 12, (E)-2-(2-(2-methyl-1-(pyridin-2-yl)propylidene)hydrazinyl)benzo[d]thiazole] | + | –
C/C(=N\Nc1nc2ccccc2s1)c1ncc[nH]1 [Compound 13, (E)-2-(2-(1-(1H-imidazol-2-yl)ethylidene)hydrazinyl)benzo[d]thiazole] | + | –
C/C(=N\Nc1nc2cc(F)ccc2s1)c1ccccn1 [Compound 14, (E)-5-fluoro-2-(2-(1-(pyridin-2-yl)ethylidene)hydrazinyl)benzo[d]thiazole] | +++ | –
C/C(=N\Nc1nc2ccc(F)cc2s1)c1ccccn1 [Compound 15, (E)-6-fluoro-2-(2-(1-(pyridin-2-yl)ethylidene)hydrazinyl)benzo[d]thiazole] | +++ | –
C/C(=N\NC(=O)N1CCC1)c1ccccn1 [Compound A6] | – | Zn2+ transport into liposomes [2]: shuttled Zn^2+ into the liposomes; increase of intracellular [Zn2+]free [3, 6]: did not; Kd [4]: 1100 nM
O=C(O)CN(CC(=O)O)CC(=O)O [NTA] | – | Zn2+ transport into liposomes [2]: did not; increase of intracellular [Zn2+]free [3, 6]: did not
C/C(=N\NC(=S)N1CCC1)c1ccccn1 [ZMC1] | – | RZ-3 fluorescence after reversal of the [Zn2+]free gradient (Zn2+ export) ([2]; large excess of EDTA outside of the liposomes, then ZMC1 added): time dependent decrease; increase of intracellular [Zn2+]free [3, 6]: increased; increase of intracellular [Zn2+]free ([3]; HEK293, ZMC1 alone (no ZnCl2), EBSS/H (−)Ca/Mg): neither cell type showed an increase; increase of intracellular [Zn2+]free [5]: neither cell type showed an increase
